Measured values: patent US20250360101A1, “OSTEOCLAST DIFFERENTIATION INHIBITOR CONTAINING UROLITHIN” (DAICEL CORPORATION, priority 2020, published 2025)

Tests used:
[1] = system: macrophages prepared by differentiation from the isolated mouse bone marrow-derived hematopoietic stem cells; experiment: Osteoclast differentiation inhibition test (M-CSF/RANKL induction, TRAP staining) from macrophages; assay type: cell-based; conditions: 10 μM; 3 days culture; ratio of TRAP-stained area to sample-free group (Comparative Example 3 = 100%)
Procedure: (§1) In the present Examples, statistical analysis was carried out using commercially available software (StatMate3, ATMS). Except for Example 3 and Comparative Example 3, Tukey's test was used for comparison in terms of the action and effect. In all tests, a significant difference was assumed at a P value of not more than 0.1%. In Example 3 and Comparative Example 3, Dunnett's test was used for comparison in terms of the action and effect. A significant difference was assumed at a P-value of not more than 1%.
Mouse femurs and tibias were removed, and a portion of about 2 mm was removed from each bone end by cutting. The long bones were placed in a 0.2-mL microtube, and centrifuged at 2000×g, followed by collecting bone marrow fluid. […]
The macrophages prepared by differentiation from the isolated mouse bone marrow-derived hematopoietic stem cells were plated on a 96-well plate at 4.0×10^4 cells/well. […] The total number of multinucleated osteoclasts having three or more nuclei present on each well was counted. The stained image was scanned using a scanner (EPSON, GT-X970, 800 pixels/inch), and the stained area was measured using image analysis software Image J. […]
The ratio of the stained area in each sample-addition group (Example 3) to the stained area in the sample-free group (Comparative Example 3) was calculated to determine the number of osteoclasts (relative value). […]

[2] = system: mouse bone marrow-derived hematopoietic stem cells; experiment: Osteoclast differentiation inhibition test (M-CSF/RANKL induction, TRAP staining) from hematopoietic stem cells; assay type: cell-based; conditions: for number of osteoclasts (relative value): 8 days culture, ratio of TRAP-stained area to sample-free group (Comparative Example = 100%); for Osteoclast differentiation (significance vs Comparative Example): Tukey's test, P not more than 0.1%
Procedure: as §1
Mouse femurs and tibias were removed, and a portion of about 2 mm was removed from each bone end by cutting. The long bones were placed in a 0.2-mL microtube, and centrifuged at 2000×g, followed by collecting bone marrow fluid. After suspending the bone marrow fluid in 4 ml of α-MEM medium (#. 11900-016, Gibco) supplemented with 10% FBS (JBS-011115), the resulting suspension was plated on a 6-cm dish. After incubating the plate at 37° C. under 5% CO2 for 24 hours, the medium was collected. The floating cells in the medium were isolated as hematopoietic stem cells.
The isolated mouse bone marrow-derived hematopoietic stem cells were plated on a 96-well plate at 4.0×10^4 cells/well. At the same time as the plating, 30 ng/ML M-CSF (macrophage-colony stimulating factor, R&D Systems) and 50 ng/mL RANKL (receptor activator of nuclear factor κ-B ligand, PeproTech Inc.) as inducers of differentiation into osteoclasts were added to all wells. Together with the differentiation inducers, urolithin A (1, 10, or 25 μM) was added. Culture was carried out by leaving the plate to stand in an incubator at 37° C. under 5% CO2 for 8 days. The medium in each well was removed, and the cells were fixed by being left to stand in […] Mildform for 10 minutes, followed by three times of washing with pure water. Thereafter, 50 μL of TRAP staining solution (SIGMA) was added to each well, and the plate was incubated in a shaded state for 1 hour at 37° C. The TRAP staining solution in each well was discarded, and the well was washed with pure water, followed by adding 50 μL of Mayer's hematoxylin solution thereto. The plated was left to stand for 2 minutes to perform nuclear staining. The plate was washed 10 times with pure water, and then dried for one or more days. The total number of multinucleated osteoclasts having three or more nuclei present on each well was counted. The stained image was scanned using a scanner (EPSON, GT-X970, 800 pixels/inch), and the stained area was measured using image analysis software Image J.
The same operation as in Example 1 was carried out except that urolithin A was not added.
The ratio of the stained area in each sample-addition group (Example 1) to the stained area in the sample-free group (Comparative Example 1) was calculated to determine the number of osteoclasts (relative value). […] The conditions marked with “*” in Table 2 and FIG. 1 are the conditions under which the significant differences were found compared to Comparative Example 1.
The same operation as in Example 1 was carried out except that urolithin B was used instead of urolithin A, and that urolithin B was added at 25 or 50 μM.
The same operation as in Example 1 was carried out except that urolithin B was not added.
The ratio of the stained area in each sample-addition group (Example 2) to the stained area in the sample-free group (Comparative Example 2) was calculated to determine the number of osteoclasts (relative value). […] The condition marked with “*” in Table 3 and FIG. 2 is the condition under which the significant difference was found compared to Comparative Example 2.

| SMILES | number of osteoclasts (relative value) [1] | number of osteoclasts (relative value) ([2]; 1 μM) | number of osteoclasts (relative value) ([2]; 10 μM) | Osteoclast differentiation (significance vs Comparative Example) ([2]; 10 μM) | number of osteoclasts (relative value) ([2]; 25 μM) | Osteoclast differentiation (significance vs Comparative Example) ([2]; 25 μM) | number of osteoclasts (relative value) ([2]; 50 μM) |
| --- | --- | --- | --- | --- | --- | --- | --- |
| O=c1oc2cc(O)ccc2c2ccc(O)cc12 [Urolithin A] | 50% ± 5% (*) | 88% ± 9% | 49% ± 6% (*) | significantly inhibited | 26% ± 4% (*) | significantly inhibited |  |
| O=c1oc2cc(O)ccc2c2ccccc12 [Urolithin B] |  |  |  |  | 87% ± 13% |  | 40% ± 5% (*) |
